Laboratory results reported in publication PMC11089506 (Journal of Medicinal Chemistry, 2024).
Counter-ions that a name gives are not always drawn.

Legend:
K+ Channel (hERG) = biological target: T1, K+ Channel (hERG) (Homo sapiens, UniProt Q12809); assay: radioligand competition binding, [3H]Astemizole; details: estimated from the % inhibition data
T1 construct: Eurofins

hERG K+ channel = biological target: T2, hERG K+ channel (Homo sapiens, UniProt Q12809); assay: radioligand competition binding, [3H]Astemizole; details: human, probe [3H]Astemizole; read-out: % inhibition of the specific radioligand binding
T2 construct: Eurofins

5-HT7 = biological target: T3, 5-HT7 (Homo sapiens, UniProt P34969); assay: radioligand competition binding, [3H]LSD
T3 construct: Eurofins

Bradykinin receptor B1 = biological target: T4, Bradykinin receptor B1 (Homo sapiens, UniProt P46663); assay: radioligand competition binding, [3H](Des-Arg10, Leu9)-Kallidin
T4 construct: Eurofins

5-HT1B = biological target: T5, 5-HT1B (Homo sapiens, UniProt P28222); assay: radioligand competition binding, [3H]GR125743
T5 construct: Eurofins

Estrogen receptor ERα = biological target: T6, Estrogen receptor ERα (Homo sapiens, UniProt P03372); assay: radioligand competition binding, [3H]Estradiol
T6 construct: Eurofins

β2 (adrenergic receptor) = biological target: T7, β2 (adrenergic receptor) (Homo sapiens, UniProt P07550); assay: radioligand competition binding, [3H](-)CGP 12177
T7 construct: Eurofins

Prostanoid receptor EP4 = biological target: T8, Prostanoid receptor EP4 (Homo sapiens, UniProt P35408); assay: radioligand competition binding, [3H]Prostaglandin E2
T8 construct: Eurofins

5-HT6 = biological target: T9, 5-HT6 (Homo sapiens, UniProt P50406); assay: radioligand competition binding, [3H]LSD
T9 construct: Eurofins

Purinergic receptor P2X = assay: radioligand competition binding, [3H]α,β-Methylene-ATP; design: species or system rat
GABAB(1a,2) receptor = biological target: T10, GABAB(1a,2) receptor (Homo sapiens, UniProt Q9UBS5); assay: radioligand competition binding, [3H]CGP-54626
T10 construct: Eurofins

Adenosine receptor A2A = biological target: T11, Adenosine receptor A2A (Homo sapiens, UniProt P29274); assay: radioligand competition binding, [3H]CGS-21680
T11 construct: Eurofins

[1] = biological target: T12, H3 (histaminergic receptor) (Homo sapiens, UniProt Q9Y5N1); assay: radioligand competition binding, [3H]N-α-methyl-histamine
T12 construct: Eurofins

[2] = biological target: T13, Epidermal Growth Factor receptor (Homo sapiens, UniProt P00533); assay: radioligand competition binding, [125I]EGF
T13 construct: Eurofins

Androgen receptor (NHR) = Androgen receptor (NHR) (Homo sapiens, UniProt P10275); assay: biochemical; details: read-out: % inhibition of the specific radioligand binding
K+ Channel (KATP) = biological target: T14, K+ Channel (KATP) (Cricetus cricetus, UniProt Q09427); assay: radioligand competition binding, [3H]Glyburide; design: species or system hamster
T14 construct: Eurofins

Tachykinin receptor NK3 = biological target: T15, Tachykinin receptor NK3 (Homo sapiens, UniProt P29371); assay: radioligand competition binding, [125I]MePhe7-Neurokinin B
T15 construct: Eurofins (contract laboratory)

Bradykinin receptor B2 = biological target: T16, Bradykinin receptor B2 (Homo sapiens, UniProt P30411); assay: radioligand competition binding, [3H]Bradykinin
T16 construct: Eurofins

Adenosine receptor A1 = biological target: T17, Adenosine receptor A1 (Homo sapiens, UniProt P30542); assay: radioligand competition binding, [3H]DPCPX
T17 construct: Eurofins

[3] = biological target: T18, D2S (dopaminergic receptor) (Homo sapiens, UniProt P14416); assay: radioligand competition binding, [3H]7-OH-DPAT; details: read-out: % inhibition of the specific radioligand binding
T18 construct: Eurofins

GABA transporter = GABA transporter (Rattus norvegicus, UniProt P23978); assay: biochemical; details: read-out: % inhibition of the specific radioligand binding
Tachykinin receptor NK1 = biological target: T19, Tachykinin receptor NK1 (Homo sapiens, UniProt P25103); assay: radioligand competition binding, [3H]Substance P
T19 construct: Eurofins (contract laboratory)

β1 (adrenergic receptor) = biological target: T20, β1 (adrenergic receptor) (Homo sapiens, UniProt P08588); assay: radioligand competition binding, [3H](-)CGP 12177
T20 construct: Eurofins

M2 (muscarinic receptor) = biological target: T21, M2 (muscarinic receptor) (Homo sapiens, UniProt P08172); assay: radioligand competition binding, [3H]AF-DX 384
T21 construct: Eurofins

[4] = estimated from the % inhibition data
[5] = read-out: % inhibition of the specific radioligand binding

T7 sequence (P07550 whole entry): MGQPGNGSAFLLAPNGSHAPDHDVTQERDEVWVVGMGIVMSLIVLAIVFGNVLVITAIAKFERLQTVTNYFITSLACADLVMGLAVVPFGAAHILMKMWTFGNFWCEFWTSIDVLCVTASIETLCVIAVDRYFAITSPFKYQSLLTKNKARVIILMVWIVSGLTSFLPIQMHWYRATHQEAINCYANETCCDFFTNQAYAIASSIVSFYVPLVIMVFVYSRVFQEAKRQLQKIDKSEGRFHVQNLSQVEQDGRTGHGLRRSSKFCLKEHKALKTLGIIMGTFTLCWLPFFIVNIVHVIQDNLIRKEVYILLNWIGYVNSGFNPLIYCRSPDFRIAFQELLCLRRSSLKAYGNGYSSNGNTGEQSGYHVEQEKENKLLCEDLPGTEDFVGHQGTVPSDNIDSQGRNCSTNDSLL
T9 sequence (P50406 whole entry): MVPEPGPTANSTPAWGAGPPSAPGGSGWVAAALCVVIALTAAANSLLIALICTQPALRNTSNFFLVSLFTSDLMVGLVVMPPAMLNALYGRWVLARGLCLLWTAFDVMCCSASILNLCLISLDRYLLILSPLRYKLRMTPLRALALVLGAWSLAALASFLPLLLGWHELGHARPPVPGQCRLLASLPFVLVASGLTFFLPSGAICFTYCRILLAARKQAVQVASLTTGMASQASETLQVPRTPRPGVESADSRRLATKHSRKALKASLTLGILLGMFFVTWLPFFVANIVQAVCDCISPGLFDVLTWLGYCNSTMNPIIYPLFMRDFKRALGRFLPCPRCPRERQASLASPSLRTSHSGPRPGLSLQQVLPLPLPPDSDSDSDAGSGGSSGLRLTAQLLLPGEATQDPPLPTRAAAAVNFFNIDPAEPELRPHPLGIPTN
T3 sequence (P34969 whole entry): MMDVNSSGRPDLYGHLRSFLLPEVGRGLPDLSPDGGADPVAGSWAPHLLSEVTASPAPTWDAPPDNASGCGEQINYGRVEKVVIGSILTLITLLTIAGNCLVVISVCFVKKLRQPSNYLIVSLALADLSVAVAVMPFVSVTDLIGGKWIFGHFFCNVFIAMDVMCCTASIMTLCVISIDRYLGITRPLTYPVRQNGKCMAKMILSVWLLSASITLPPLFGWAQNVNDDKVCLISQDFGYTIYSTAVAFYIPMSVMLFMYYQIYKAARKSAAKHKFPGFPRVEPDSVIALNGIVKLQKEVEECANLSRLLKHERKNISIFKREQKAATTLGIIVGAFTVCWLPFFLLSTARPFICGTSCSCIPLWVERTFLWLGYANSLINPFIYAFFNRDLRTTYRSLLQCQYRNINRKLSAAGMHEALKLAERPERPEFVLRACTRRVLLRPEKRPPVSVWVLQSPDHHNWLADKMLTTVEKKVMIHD
T5 sequence (P28222 whole entry): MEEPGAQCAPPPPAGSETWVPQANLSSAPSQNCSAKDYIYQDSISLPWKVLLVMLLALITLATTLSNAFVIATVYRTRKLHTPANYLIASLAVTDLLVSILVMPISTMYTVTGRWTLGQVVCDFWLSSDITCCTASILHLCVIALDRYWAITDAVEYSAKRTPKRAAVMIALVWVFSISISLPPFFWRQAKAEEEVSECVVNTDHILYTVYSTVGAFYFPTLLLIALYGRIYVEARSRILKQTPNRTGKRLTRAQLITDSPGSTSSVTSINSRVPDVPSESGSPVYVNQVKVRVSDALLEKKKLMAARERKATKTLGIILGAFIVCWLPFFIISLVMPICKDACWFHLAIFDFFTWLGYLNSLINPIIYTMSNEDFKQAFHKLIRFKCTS
T6 sequence (P03372 whole entry): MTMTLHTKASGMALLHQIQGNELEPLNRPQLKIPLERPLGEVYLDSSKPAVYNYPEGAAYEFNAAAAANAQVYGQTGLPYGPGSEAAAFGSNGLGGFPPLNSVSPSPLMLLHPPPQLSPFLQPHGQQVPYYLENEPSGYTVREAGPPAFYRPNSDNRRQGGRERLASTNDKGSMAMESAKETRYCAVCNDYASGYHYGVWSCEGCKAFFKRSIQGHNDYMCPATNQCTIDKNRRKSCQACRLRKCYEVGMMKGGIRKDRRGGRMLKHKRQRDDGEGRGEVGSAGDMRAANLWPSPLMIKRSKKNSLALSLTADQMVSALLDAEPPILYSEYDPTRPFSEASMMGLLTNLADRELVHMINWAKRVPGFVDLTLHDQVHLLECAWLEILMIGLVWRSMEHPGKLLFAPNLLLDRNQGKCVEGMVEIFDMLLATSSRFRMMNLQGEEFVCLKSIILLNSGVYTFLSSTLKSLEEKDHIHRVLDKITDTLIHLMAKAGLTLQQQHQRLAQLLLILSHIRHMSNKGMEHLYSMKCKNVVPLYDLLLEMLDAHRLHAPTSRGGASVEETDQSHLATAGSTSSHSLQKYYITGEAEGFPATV
T4 sequence (P46663 whole entry): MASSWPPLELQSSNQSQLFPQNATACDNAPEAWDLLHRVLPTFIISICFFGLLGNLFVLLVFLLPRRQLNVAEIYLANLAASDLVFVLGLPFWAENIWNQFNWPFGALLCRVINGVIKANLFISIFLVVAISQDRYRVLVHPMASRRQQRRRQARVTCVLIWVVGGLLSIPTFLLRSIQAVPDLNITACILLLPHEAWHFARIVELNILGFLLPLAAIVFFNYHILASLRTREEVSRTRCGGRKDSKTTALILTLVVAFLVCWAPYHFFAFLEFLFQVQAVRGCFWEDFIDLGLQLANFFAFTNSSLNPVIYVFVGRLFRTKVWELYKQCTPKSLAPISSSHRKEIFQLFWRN
T17 sequence (P30542 whole entry): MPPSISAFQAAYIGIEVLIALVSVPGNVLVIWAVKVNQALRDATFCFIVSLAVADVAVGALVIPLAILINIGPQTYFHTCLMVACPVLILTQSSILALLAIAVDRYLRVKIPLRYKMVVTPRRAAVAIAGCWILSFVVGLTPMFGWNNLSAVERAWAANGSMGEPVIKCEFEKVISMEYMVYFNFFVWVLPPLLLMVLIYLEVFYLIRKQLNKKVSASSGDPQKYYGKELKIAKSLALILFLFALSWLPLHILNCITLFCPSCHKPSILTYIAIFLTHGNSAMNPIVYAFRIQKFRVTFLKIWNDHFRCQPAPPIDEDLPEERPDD
T8 sequence (P35408 whole entry): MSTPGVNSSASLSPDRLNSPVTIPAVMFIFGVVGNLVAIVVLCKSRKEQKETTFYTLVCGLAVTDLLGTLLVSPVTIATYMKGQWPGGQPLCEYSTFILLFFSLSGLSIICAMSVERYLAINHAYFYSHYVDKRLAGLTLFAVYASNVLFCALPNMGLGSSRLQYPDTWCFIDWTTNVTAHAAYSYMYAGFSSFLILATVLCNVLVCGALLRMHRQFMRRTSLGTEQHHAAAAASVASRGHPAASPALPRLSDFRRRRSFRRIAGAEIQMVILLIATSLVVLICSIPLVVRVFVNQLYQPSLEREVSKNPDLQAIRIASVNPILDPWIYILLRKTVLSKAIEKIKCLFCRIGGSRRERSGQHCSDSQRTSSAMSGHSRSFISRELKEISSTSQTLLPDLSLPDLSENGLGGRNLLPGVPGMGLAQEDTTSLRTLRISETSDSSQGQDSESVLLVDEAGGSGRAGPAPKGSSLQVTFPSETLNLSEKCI
T16 sequence (P30411 whole entry): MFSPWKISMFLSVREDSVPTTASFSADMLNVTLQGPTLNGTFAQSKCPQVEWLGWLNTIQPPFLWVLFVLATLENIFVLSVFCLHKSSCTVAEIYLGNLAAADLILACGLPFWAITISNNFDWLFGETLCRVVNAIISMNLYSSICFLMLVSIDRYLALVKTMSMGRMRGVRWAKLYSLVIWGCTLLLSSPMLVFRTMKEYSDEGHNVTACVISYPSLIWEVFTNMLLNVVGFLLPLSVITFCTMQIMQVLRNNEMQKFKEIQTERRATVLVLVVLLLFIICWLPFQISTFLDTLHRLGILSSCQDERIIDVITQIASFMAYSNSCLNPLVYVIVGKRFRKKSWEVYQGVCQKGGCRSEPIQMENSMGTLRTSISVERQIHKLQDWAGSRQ
T11 sequence (P29274 whole entry): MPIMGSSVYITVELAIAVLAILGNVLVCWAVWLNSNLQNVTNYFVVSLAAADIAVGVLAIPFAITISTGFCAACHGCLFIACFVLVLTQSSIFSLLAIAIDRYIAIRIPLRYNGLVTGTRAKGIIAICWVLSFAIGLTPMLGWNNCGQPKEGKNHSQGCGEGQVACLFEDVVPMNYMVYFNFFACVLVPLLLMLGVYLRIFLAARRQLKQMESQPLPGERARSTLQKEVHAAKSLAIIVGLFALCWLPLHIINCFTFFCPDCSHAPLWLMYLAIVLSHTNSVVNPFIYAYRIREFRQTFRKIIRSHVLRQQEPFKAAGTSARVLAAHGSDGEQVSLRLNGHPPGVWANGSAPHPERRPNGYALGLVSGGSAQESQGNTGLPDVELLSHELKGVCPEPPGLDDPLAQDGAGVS
T21 sequence (P08172 whole entry): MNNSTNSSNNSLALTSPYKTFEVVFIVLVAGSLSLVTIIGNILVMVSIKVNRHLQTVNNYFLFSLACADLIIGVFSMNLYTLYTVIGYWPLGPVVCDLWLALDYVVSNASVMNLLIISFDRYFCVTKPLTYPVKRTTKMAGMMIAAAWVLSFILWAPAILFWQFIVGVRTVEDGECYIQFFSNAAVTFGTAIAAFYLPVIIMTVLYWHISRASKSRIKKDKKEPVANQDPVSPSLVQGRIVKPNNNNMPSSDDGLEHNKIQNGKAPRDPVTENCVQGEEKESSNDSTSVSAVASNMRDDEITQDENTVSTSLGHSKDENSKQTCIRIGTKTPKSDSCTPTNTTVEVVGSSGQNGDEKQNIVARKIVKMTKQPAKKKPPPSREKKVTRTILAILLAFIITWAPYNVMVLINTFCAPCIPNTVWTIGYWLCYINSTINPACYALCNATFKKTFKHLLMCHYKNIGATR

## COc1cc(C(F)(F)F)c(OC)cc1[C@@H]1CCCNC1 [(S)-11, 3-(2,5-Dimethoxy-4-(trifluoromethyl)phenyl)piperidine Hydrochloride]
K+ Channel (hERG)
  IC50: > 10 µM
hERG K+ channel
  inhibition at 10 µM: 32%
5-HT7; [4]
  IC50: 1 to 10 µM
5-HT7; [5]
  inhibition at 1 µM: 17%
  inhibition at 10 µM: 62%
Bradykinin receptor B1; [4]
  IC50: > 10 µM
Bradykinin receptor B1; [5]
  inhibition at 10 µM: 12%
5-HT1B; [4]
  IC50: 1 to 10 µM
5-HT1B; [5]
  inhibition at 1 µM: 21%
  inhibition at 10 µM: 68%
Estrogen receptor ERα; [4]
  IC50: > 10 µM
Estrogen receptor ERα; [5]
  inhibition at 10 µM: -2%
β2 (adrenergic receptor); [4]
  IC50: ~10 µM
β2 (adrenergic receptor); [5]
  inhibition at 1 µM: 2%
  inhibition at 10 µM: 55%
Prostanoid receptor EP4; [4]
  IC50: > 10 µM
Prostanoid receptor EP4; [5]
  inhibition at 10 µM: 9%
5-HT6; [4]
  IC50: 1 to 10 µM
5-HT6; [5]
  inhibition at 1 µM: 24%
  inhibition at 10 µM: 77%
Purinergic receptor P2X; (S)-11 10 μM, n=1
  % inhibition of the specific radioligand binding: -30%
Purinergic receptor P2X; [4]
  IC50: > 10 µM
GABAB(1a,2) receptor; [4]
  IC50: > 10 µM
GABAB(1a,2) receptor; [5]
  inhibition at 10 µM: 6%
Adenosine receptor A2A; [4]
  IC50: > 10 µM
Adenosine receptor A2A; [5]
  inhibition at 10 µM: -19%
[1]; [4]
  IC50: > 10 µM
[1]; [5]
  inhibition at 10 µM: 11%
[2]; [4]
  IC50: > 10 µM
[2]; [5]
  inhibition at 10 µM: -18%
Androgen receptor (NHR)
  inhibition at 10 µM: 1%
K+ Channel (KATP); [4]
  IC50: > 10 µM
K+ Channel (KATP); [5]
  inhibition at 10 µM: -2%
Tachykinin receptor NK3; [4]
  IC50: > 10 µM
Tachykinin receptor NK3; [5]
  inhibition at 10 µM: 14%
Bradykinin receptor B2; [4]
  IC50: > 10 µM
Bradykinin receptor B2; [5]
  inhibition at 10 µM: 18%
Adenosine receptor A1; [4]
  IC50: > 10 µM
Adenosine receptor A1; [5]
  inhibition at 10 µM: 4%
[3]
  inhibition at 10 µM: 59%
GABA transporter
  inhibition at 10 µM: 29%
Tachykinin receptor NK1; [4]
  IC50: > 10 µM
Tachykinin receptor NK1; [5]
  inhibition at 10 µM: 31%
β1 (adrenergic receptor); [4]
  IC50: > 10 µM
β1 (adrenergic receptor); [5]
  inhibition at 10 µM: 38%
M2 (muscarinic receptor); [4]
  IC50: ~10 µM
M2 (muscarinic receptor); [5]
  inhibition at 10 µM: 40%
